Data on 4 molecules can be found in US10689361B2, “Quinoline derivative and use thereof” (priority 2016, dated 2020).

Data set [1] concerns the target VEGFR1 (Homo sapiens, UniProt P17948). Put plainly: Caliper Mobility Shift Assay, kinase inhibition. Format: biochemical. Particulars: read-out: Kinase inhibitory activity (IC50, nM) VEGFR1.
Data set [2] has as its target VEGFR2 (Homo sapiens, UniProt P35968). Put plainly: Caliper Mobility Shift Assay, kinase inhibition. Format: biochemical. The following applies: read-out: Kinase inhibitory activity (IC50, nM) VEGFR2.
Data set [3] concerns the target VEGFR3 (Homo sapiens, UniProt P35916). Put plainly: Caliper Mobility Shift Assay, kinase inhibition. The format is biochemical. The following applies: read-out: Kinase inhibitory activity (IC50, nM) VEGFR3.
Data set [4] concerns the target T1, FLT3 (Homo sapiens, UniProt P36888).
T1 sequence (P36888 27-993): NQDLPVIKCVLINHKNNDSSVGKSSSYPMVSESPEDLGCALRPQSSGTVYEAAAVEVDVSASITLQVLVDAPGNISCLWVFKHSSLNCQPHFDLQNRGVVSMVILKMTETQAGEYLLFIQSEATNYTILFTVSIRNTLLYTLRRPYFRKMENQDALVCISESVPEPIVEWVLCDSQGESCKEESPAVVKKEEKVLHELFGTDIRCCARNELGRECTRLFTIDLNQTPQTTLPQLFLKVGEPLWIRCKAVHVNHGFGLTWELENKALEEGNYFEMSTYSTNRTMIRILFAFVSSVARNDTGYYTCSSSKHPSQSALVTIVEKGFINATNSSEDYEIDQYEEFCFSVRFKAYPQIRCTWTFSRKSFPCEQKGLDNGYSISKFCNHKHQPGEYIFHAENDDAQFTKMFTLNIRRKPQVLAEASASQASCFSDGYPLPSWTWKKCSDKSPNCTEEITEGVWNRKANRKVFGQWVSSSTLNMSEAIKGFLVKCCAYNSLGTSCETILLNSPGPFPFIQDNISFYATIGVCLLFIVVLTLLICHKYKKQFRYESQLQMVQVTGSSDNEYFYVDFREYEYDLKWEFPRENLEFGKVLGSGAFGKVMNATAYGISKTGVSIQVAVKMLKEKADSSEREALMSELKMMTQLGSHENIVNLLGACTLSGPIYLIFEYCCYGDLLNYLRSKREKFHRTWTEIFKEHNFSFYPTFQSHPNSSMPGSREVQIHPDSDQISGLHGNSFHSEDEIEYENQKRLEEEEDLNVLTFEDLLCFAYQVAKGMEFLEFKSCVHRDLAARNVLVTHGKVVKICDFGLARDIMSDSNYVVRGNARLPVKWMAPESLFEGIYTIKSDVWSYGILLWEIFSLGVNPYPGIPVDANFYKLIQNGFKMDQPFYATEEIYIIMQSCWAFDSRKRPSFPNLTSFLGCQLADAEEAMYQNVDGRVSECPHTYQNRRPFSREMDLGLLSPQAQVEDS
Put plainly: Caliper Mobility Shift Assay, kinase inhibition. The format is biochemical. Particulars: read-out: Kinase inhibitory activity (IC50, nM) FLT3.

Data set [5] concerns the target PDGFRα (Homo sapiens, UniProt P16234). Put plainly: Caliper Mobility Shift Assay, kinase inhibition. The format is biochemical. The following applies: read-out: Kinase inhibitory activity (IC50, nM) PDGFRα.
Data set [6] addresses PDGFRβ (Homo sapiens, UniProt P09619). Put plainly: Caliper Mobility Shift Assay, kinase inhibition. The format is biochemical. Particulars: read-out: Kinase inhibitory activity (IC50, nM) PDGFRβ.
The target in data set [7] is FGFR1 (Homo sapiens, UniProt P11362). Put plainly: Caliper Mobility Shift Assay, kinase inhibition. The format is biochemical. The following applies: read-out: Kinase inhibitory activity (IC50, nM) FGFR1.
The target in data set [8] is RET (Homo sapiens, UniProt P07949). Put plainly: Caliper Mobility Shift Assay, kinase inhibition. Format: biochemical. The following applies: read-out: Kinase inhibitory activity (IC50, nM) RET.
The target of data set [9] is EGFR (Homo sapiens, UniProt P00533). Put plainly: Caliper Mobility Shift Assay, kinase inhibition. The format is biochemical. The following applies: read-out: Kinase inhibitory activity (IC50, nM) EGFR. As to the method: (§1) The semi-inhibitory concentration IC50 (the concentration of the compound required to inhibit the enzymatic activity to 50%) of a compound was measured by mixing a fixed enzyme with a specific substrate and the test compound of different concentrations. The test method used was Caliper Mobility Shift Assay, the kinases tested were VEGFR1, VEGFR2, VEGFR3, FLT3, PDGFRα, PDGFRβ, FGFR1, RET, EGFR and IGF1R, and the standard reference compound used was staurosporine.

The target of data set [10] is IGF1R (Homo sapiens, UniProt P08069). Put plainly: Caliper Mobility Shift Assay, kinase inhibition. Format: biochemical. The following applies: read-out: Kinase inhibitory activity (IC50, nM) IGF1R. How it is done:
as §1

Data set [11] in a line: Pharmacokinetic property evaluation test in CD-1 mice, intravenous. The format is in vivo. The following applies: both sexes, mouse, plasma, intravenous injection, 3 mg/kg, single administration, non-compartment model; for half-life: read-out: Terminal t1/2 (converted); for Vd: read-out: Vss. How it is done: Experimental animals: CD-1 mice, males and females; weight: 20-25 g;
[…] Route of administration: intravenous injection. […] Dosage: 3 mg/kg.
Sample collection: Blood was collected at the following time points: 5 min, 15 min, 30 min, 1 hr, 2 hr, 4 hr, 8 hr, and 24 hr after administration.
Sample analysis: The collected samples were tested using the LC-MS/MS method. The instrument model was API4000.
Pharmacokinetic data analysis: The obtained plasma concentration data were fitted and calculated according to the non-compartment model using WinNolin, and some results are summarized in Table 2.

Sequence of VEGFR1 (P17948 27-1338, species assumed): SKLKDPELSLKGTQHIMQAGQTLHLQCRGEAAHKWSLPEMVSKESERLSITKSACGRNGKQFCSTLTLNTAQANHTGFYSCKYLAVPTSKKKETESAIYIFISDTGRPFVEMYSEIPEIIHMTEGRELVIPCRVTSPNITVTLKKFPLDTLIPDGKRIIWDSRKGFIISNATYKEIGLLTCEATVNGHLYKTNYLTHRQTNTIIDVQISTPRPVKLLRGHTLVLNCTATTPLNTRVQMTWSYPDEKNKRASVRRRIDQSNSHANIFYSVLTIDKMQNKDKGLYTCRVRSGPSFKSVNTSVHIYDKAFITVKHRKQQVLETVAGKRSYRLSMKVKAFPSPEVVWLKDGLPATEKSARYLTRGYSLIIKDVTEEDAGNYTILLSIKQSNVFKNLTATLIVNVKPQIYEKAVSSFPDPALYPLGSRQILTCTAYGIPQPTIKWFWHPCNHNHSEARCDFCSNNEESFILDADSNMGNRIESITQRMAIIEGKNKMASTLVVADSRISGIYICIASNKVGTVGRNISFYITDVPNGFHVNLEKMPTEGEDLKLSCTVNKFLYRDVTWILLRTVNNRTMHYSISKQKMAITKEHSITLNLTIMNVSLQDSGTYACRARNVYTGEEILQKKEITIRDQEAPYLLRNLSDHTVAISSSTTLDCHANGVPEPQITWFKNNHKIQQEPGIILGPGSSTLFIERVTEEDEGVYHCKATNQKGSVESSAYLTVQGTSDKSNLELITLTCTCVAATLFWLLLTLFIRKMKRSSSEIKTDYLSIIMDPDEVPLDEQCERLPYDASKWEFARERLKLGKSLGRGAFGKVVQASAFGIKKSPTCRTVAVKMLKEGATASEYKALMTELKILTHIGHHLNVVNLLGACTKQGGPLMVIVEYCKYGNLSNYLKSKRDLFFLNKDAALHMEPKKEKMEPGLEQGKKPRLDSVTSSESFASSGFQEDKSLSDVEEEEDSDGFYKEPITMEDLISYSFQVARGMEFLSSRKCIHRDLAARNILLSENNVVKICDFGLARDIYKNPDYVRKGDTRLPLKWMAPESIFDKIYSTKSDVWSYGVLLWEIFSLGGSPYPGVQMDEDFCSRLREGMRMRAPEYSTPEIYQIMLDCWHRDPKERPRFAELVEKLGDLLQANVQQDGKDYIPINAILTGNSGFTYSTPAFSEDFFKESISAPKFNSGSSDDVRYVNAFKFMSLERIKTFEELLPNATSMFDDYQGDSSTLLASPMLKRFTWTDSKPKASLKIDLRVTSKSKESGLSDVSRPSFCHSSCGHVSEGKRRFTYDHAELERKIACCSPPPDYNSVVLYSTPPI
Sequence of IGF1R (P08069 31-1367, species assumed): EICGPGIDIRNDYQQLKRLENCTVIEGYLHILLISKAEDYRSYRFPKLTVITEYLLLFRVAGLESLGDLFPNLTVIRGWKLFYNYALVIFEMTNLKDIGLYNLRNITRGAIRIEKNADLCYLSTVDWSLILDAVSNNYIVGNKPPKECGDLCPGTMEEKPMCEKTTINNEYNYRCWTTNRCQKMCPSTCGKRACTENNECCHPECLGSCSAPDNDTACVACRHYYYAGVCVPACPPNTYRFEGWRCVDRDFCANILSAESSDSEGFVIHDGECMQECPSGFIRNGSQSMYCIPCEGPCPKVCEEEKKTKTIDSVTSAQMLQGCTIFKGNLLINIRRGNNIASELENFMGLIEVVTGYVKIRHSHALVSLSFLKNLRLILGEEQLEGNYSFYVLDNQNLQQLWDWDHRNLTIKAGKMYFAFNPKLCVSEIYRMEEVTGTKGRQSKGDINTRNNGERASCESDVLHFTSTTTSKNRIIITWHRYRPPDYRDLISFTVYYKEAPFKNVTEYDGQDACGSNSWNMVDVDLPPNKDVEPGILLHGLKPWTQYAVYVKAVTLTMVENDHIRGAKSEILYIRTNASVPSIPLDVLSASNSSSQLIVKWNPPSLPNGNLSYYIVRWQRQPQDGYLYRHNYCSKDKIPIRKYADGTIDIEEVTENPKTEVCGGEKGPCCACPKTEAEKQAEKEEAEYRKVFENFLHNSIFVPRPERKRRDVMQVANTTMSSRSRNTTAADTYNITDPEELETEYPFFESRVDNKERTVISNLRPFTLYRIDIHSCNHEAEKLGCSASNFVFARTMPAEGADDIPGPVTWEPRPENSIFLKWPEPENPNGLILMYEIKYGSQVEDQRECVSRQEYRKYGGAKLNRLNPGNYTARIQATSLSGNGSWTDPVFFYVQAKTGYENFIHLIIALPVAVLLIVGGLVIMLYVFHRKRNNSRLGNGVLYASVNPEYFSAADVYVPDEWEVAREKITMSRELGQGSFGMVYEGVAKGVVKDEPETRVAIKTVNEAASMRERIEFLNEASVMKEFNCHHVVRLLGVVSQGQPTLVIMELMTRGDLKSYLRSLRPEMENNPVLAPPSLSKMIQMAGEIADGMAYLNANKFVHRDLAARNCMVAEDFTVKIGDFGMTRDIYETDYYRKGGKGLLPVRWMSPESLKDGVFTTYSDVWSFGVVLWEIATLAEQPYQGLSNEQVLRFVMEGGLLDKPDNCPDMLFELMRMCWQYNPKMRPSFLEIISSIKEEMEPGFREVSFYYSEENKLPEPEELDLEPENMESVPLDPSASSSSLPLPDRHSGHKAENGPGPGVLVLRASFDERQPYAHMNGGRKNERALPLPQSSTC
Sequence of FGFR1 (P11362 22-822, species assumed): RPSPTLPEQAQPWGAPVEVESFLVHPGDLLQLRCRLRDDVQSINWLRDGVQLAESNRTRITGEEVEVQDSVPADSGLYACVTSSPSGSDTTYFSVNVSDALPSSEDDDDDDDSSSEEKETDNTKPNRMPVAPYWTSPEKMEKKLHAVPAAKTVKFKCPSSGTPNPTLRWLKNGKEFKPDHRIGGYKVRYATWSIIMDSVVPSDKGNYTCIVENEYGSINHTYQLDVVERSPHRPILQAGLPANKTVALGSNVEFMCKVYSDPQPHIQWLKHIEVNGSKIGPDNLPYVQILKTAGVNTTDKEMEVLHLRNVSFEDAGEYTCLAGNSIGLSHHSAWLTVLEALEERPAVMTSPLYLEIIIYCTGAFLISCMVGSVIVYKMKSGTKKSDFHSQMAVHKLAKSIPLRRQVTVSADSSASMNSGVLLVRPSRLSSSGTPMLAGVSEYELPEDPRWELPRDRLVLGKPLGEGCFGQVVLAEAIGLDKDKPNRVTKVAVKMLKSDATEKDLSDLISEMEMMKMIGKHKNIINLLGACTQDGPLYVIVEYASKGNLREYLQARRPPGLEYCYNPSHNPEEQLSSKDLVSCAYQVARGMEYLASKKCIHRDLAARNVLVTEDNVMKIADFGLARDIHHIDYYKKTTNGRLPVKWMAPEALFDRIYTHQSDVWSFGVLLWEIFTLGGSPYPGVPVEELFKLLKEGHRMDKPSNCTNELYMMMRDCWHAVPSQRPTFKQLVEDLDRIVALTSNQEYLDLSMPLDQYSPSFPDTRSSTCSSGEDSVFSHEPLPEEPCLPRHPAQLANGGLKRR
Sequence of VEGFR2 (P35968 20-1356, species assumed): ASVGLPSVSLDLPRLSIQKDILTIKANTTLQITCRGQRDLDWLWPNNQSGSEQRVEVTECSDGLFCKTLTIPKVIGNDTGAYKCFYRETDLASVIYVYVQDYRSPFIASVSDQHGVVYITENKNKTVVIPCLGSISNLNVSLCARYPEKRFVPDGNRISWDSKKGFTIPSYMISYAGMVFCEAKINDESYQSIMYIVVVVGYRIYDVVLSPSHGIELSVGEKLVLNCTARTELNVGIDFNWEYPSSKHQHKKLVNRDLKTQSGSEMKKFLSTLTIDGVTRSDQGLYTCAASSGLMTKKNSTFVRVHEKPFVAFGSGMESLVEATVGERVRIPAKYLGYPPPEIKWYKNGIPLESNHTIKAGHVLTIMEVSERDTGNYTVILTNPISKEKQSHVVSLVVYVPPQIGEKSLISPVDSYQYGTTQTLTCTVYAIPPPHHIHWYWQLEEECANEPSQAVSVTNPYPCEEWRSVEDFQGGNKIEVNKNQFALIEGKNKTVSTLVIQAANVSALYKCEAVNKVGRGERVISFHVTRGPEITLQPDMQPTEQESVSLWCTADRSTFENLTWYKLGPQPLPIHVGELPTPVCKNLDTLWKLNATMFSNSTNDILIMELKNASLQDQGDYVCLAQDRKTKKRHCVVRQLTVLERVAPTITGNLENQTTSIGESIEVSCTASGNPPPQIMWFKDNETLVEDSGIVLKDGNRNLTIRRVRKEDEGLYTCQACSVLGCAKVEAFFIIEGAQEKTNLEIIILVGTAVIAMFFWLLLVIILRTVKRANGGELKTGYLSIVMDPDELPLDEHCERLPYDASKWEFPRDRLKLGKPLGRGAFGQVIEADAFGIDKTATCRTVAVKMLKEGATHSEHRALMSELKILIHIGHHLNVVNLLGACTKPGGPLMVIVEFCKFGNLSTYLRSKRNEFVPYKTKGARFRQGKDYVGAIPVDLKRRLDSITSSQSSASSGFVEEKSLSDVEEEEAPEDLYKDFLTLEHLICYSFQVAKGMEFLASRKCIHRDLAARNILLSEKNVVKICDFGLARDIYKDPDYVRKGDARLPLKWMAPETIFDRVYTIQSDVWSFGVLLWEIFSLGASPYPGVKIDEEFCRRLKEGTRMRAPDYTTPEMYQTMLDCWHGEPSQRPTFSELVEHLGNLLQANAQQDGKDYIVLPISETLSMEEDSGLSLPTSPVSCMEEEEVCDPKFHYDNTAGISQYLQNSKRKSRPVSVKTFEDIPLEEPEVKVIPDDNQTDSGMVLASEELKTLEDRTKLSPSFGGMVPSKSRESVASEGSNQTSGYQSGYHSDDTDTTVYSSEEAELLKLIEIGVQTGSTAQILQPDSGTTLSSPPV

The IC50 is the concentration needed to halve the response being measured. In the case of `COc1cc2nccc(Oc3ccc(NC(=O)Nc4cn[nH]c4)cc3F)c2cc1C(N)=O` [Compound of Formula Ic], the IC50 was 831 nM in [1]; 11 nM in data set [2]; 34 nM in data set [3]; 708 nM in data set [4]; 42 nM in [5]; 151 nM in data set [6]. Also, the IC50 in data set [7] is > 1000 nM; in data set [8], 204 nM; in data set [9], > 200000 nM; in [10], > 200000 nM.

The AUC(0-t) is the area under the concentration-time curve up to a stated or last time point. High values mean high exposure, low ones low exposure. The MRT inf is the average time that molecules of a dose stay in the body. The term clearance denotes a measure of how efficiently the substance is removed, as volume per time. As for `COc1cc2nccc(Oc3ccc(NC(=O)Nc4cnn(C)c4)cc3F)c2cc1C(N)=O` [Compound of Formula Ib], the IC50 in data set [1] is 555 nM; in data set [2] it was 3 nM; in [3], 84 nM; in data set [4] it was 890 nM; in data set [5] it was 37 nM; in data set [6], 165 nM. Besides, the 50% inhibitory concentration (IC50) in data set [7] is > 1000 nM; in data set [8], 290 nM; in [9] it was > 200000 nM; in data set [10], > 200000 nM. The molecule further gave an area under the curve AUC(0-t) in [11] of 1600 ng·h/mL. The molecule further had an MRT inf in [11] of 49.2 min. In data set [11], this molecule gave a clearance of 30.5 mL/min/kg. Also, the half-life in data set [11] was 134 min. Further, the Vd in data set [11] turned out to be 1.48 L/kg.

With `CNC(=O)c1cc(Oc2ccc(NC(=O)Nc3ccc(Cl)c(C(F)(F)F)c3)c(F)c2)ccn1` [Regorafenib, regorafenib, reference compound], the concentration for half-maximal inhibition (IC50) in [9] was 10600 nM; in data set [10], > 400000 nM.

Take `CNC(=O)c1cc2c(Oc3ccc(NC(=O)Nc4cnn(C)c4)cc3F)ccnc2cc1OC` [Compound of Formula Ia]: the IC50 came out at 381 nM in data set [1]; 2.4 nM in [2]; 56 nM in [3]; 576 nM in data set [4]; 27 nM in data set [5]; 110 nM in [6]. Besides, the IC50 is > 1000 nM in [7], 106 nM in [8], > 500000 nM in data set [9] and > 500000 nM in [10]. Besides, the AUC(0-t) in data set [11] is 2040 ng·h/mL. For the same molecule, the MRT inf in data set [11] was 20.4 min. This molecule also gave a clearance in data set [11] of 25.2 mL/min/kg. The half-life in [11] was 28.2 min. In [11], the Vd was 0.525 L/kg.
